Results reported in patent US20260297542A1, “HERBICIDE RESISTANT PLANTS” (SYNGENTA CROP PROTECTION AG, priority 2023, published 2026).
Residue numbers refer to the chain shown, from its start.

Legend:
[1] = target: T1, His-TEV-AtPP01 ΔcTP (SEQ ID NO: 370) (Arabidopsis thaliana, UniProt P55826); assay: activity rate of PPO variant in in vitro assay; assay type: biochemical; conditions: role: substrate; 1 uM protoporphyrinogen IX; no inhibitor
T1 construct: with cTPs removed; made in house; host or cells: E. coli BL21 (DE3), His GraviTrap, partially purified
T1 sequence (P55826 with tags, fused parts or gaps): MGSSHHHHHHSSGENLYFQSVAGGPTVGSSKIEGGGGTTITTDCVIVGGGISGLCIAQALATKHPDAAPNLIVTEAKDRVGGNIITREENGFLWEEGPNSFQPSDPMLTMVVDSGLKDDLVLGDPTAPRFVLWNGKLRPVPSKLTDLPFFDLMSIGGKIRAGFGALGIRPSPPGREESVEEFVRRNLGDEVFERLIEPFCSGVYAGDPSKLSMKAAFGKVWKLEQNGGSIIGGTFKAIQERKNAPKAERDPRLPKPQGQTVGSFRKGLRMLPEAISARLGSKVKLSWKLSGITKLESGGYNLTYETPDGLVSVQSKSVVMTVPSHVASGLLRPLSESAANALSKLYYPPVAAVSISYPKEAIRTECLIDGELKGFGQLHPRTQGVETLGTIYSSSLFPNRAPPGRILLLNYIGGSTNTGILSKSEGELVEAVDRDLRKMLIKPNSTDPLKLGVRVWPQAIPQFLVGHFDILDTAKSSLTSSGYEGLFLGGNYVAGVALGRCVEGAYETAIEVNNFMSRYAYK
Text: (§1) A pET24 plasmid containing a DNA sequence encoding variants of AtPPO1 derived from Arabidopsis thaliana with cTPs removed and both a 6×His tag and TEV protease cleavage tag added at the N-terminus, codon-optimised for expression in E. coli, and under control of a T7 promoter, was synthesised by Twist Bioscience. The following variants were synthesised: WT AtPPO1 (SEQ ID NO: 370), AtPPO1 L479M (SEQ ID NO: 371), AtPPO1 L479N (SEQ ID NO: 372), AtPPO1 S305L Y426V (SEQ ID NO: 374) and AtPPO1 S305L Y426V L479M (SEQ ID NO: 373). This plasmid was expressed in E. coli BL21 (DE3) with 50 μg/mL kanamycin selection. 10 mL of overnight cultures grown at 37° C. were used to inoculate 1 L AIM (AIM-Terrific Broth Base including Trace elements, Formedium) in 2 L shake flasks. Cultures were grown at 37° C., 200 rpm for 3 hours and then overnight at 26° C. Cells were harvested centrifugation. 5-15 g of cell pellet was lysed in and resuspended in ratio of 1:1.5 in lysis buffer (20 mM Tris pH8, 500 mM sodium chloride, 10% glycerol, 1× complete Protease EDTA-free Inhibitor Tablet (Roche), 10 mM imidazole). The resuspension was sonicated at 75% using 10 cycles of 30 seconds, 40 seconds off. After sonication Triton X-100 was added to the lysates at a final concentration of 0.5%. The lysates were centrifuged at 20,000 rpm for 25 min at 4° C. Cleared lysates were loaded on His GraviTrap (Cytiva) columns, washed with 20 mL of lysis buffer and eluted in elution buffer (20 mM Tris pH8, 500 mM sodium chloride, 10% glycerol, 200 mM imidazole, 0.03% (v/v) Triton X-100). The eluate was desalted on a PD10 column and 2.5-3.2 mL was collected. Protein concentration was measured and calculated using the absorbance at 280 nm. Extracts were diluted 1 in 4 and 10 uL was analysed by SDS PAGE.
(§2) Partially purified Protoporphyrinogen Oxidase enzymes were assayed for activity using fluorescence adapted from the method of Shepherd & Dailey (Anal Biochem. 2005 344(1) 115-121). The assay was performed in black 384 well plates with a clear bottom and the total volume of the reaction mixture was 91 ul. The final assay mixture contained 100 mM K2HPO4 pH7.2, 1 mM Na2EDTA, 5 mM DTT, 20% glycerol (v/v), 0.05% Tween 20 (v/v), 1.1% DMSO (v/v), 1 uM protoporphyrinogen IX and 1.5 nM enzyme. Compounds were dissolved in DMSO at 1 mM and a 4-fold serial dilution carried out to give 8 rates. 1 ul was added to the assay mixture. This gave final compound concentrations of 11, 2.7, 0.69, 0.17, 0.04, 0.01, 0.002, 0.0007 uM. Enzyme and inhibitor were preincubated for 5 minutes prior to starting the reaction with the addition of the substrate. […] IC50s were calculated using GraphPad Prism 7.05 nonlinear regression (Table 6). Each compound was tested in duplicate.

[2] = target: T2, His-TEV-AtPP01 ΔcTP L479N (SEQ ID NO: 372) (Arabidopsis thaliana, UniProt P55826, L479N); assay: activity rate of PPO variant in in vitro assay; assay type: biochemical; conditions: role: substrate; 1 uM protoporphyrinogen IX; no inhibitor
T2 construct: with cTPs removed; made in house; host or cells: E. coli BL21 (DE3), His GraviTrap, partially purified
T2 sequence (P55826 with tags, fused parts or gaps L479N): T1 sequence (P55826 with tags, fused parts or gaps) with L464N
Text: as §1, §2

SMILES: C=Cc1c2[nH]c(c1C)Cc1[nH]c(c(CCC(=O)O)c1C)Cc1[nH]c(c(C)c1CCC(=O)O)Cc1[nH]c(c(C)c1C=C)C2 [protoporphyrinogen IX]
- Rate [1]: 5.1 rfu second^−1 pmole^−1
- Rate [2]: 13.2 rfu second^−1 pmole^−1
